Key:
dairy cows = settings: administered intramammarily in dairy cows; cited from earlier work
[1] = system: dairy cows with clinical mild or moderate mastitis; assay: Clinical field study: response thresholds to mechanical stimuli (hypersensitivity) in dairy cows with clinical mastitis; format: in vivo; settings: adjunct to intramammary cefquinome, hind limbs, 6-8 examinations over 45 days, meloxicam groups vs antibiotics alone P<0.001
Method: Therefore, as already mentioned, dairy cows were studied to assess pain associated with moderate or mild mastitis. Based on the abovementioned study directed to the newly established method for the measurement of pain in food producing animals, a clinical field study was used to investigate, besides painful chronic conditions in cows with mild and moderate mastitis, the analgesic efficacy and long duration of action of meloxicam. In such clinical field study, meloxicam was administered only once as adjunct to intramammary antibiotic therapy and was compared to a second group where animals received re-treatments with meloxicam after 3 and 6 days. A third group received the antibiotic stand alone therapy. The distance between the hocks was measured as a proxy indicator of altered cow stance. Response thresholds to mechanical stimuli were measured on each hind limb using a modification of the method described by Nolan and others (A. Nolan, A. Livingston, R. Morris, and A. Waterman, Techniques for comparison of thermal and mechanical nociceptive stimuli in the sheep, J. Pharmacol. Methods 1987, 17, pp. 39-49). […] Response thresholds to mechanical stimuli were measured on each hind limb. […]

| Compound | long lasting analgesic activity (dairy cows) | threshold responses to mechanical stimuli (mechanical hyperalgesia) [1] |
| --- | --- | --- |
| Cc1c(Nc2ncccc2C(=O)O)cccc1C(F)(F)F [flunixin meglumine] | did not achieve a long lasting analgesic activity |  |
| CO/N=C(\C(=O)N[C@@H]1C(=O)N2C(C(=O)[O-])=C(C[n+]3cccc4c3CCCC4)CS[C@H]12)c1csc(N)n1 [antibiotics, cefquinome] |  | greater differences |
